The test system of experiment [1] is P19 cells. The experiment can be described thus: Export of ATBF1 from nucleus to cytoplasm in P19 cells, CRM1 inhibitor added. It is filed as cell-based, mouse. The procedure: (§1) The present inventors harvested cells in an undifferentiated proliferation state, to which stimulation had not been particularly applied, when at the starting time of culturing P19 carcinoma cells, and carried out an immunohistochemical staining method (ATBF1 staining using D1-120) by the following procedures. The cells were cultured in a chamber slide and fixed in 4% paraformaldehyde that had been adjusted with PBS, followed by washing. A primary antibody solution obtained by dissolving an anti-ATBF1 antibody in 0.05M Tris buffer solution (pH 7.6, containing 1% solution of bovine serum albumin and sodium azide) so that the concentration of the solution became 5 μg/ml was dropped on a slice to cause reaction at 37° C. for about 30 minutes (primary antibody reaction). After sufficiently washing, a secondary antibody Alexa Fluor 594-conjugated goat anti-rabbit IgG (as shown in the below-mentioned Examples, when double staining with other monoclonal antibody is carried out, Alexa Fluor 488-conjugated goat anti-mouse IgG is used simultaneously. Both are products by Molecular Probes.) was allowed to act on a specimen to cause a reaction at room temperature for about one hour (secondary antibody reaction). After sufficiently washing, inclusion was carried, which was observed by using a fluorescence microscope (AX70; Olympus) or a confocal laser scanning microscope (LSM5; ZWISS).
Recently, the fact that transport and export of various factors from the nucleus to the cytoplasm is adjusted with CRM1 (Exportin 1 or chromosome region maintenance 1) has been reported. ATBF1 is assumed to have a target sequence of CRM1, that is, nuclear exporting signals existing in three positions (portions starting from the 1267th, 2471th and 2504th positions in the amino acid sequence, respectively) (see FIG. 3b). […]

The subject of experiment [2] is P19 cells. The experiment can be described thus: Movement of ATBF1 from cytoplasm to nucleus in P19 cells, PI3K family antagonists added. It is filed as cell-based, mouse. To be noted: P19 cells attached to culture dish, after retinoic acid. The procedure:
as §1, with “After sufficiently washing, a secondary antibody Alexa Fluor 594-conjugated goat anti-rabbit IgG (as shown in the below-mentioned Examples, when double staining with other monoclonal antibody is carried out, Alexa Fluor 488-conjugated goat anti-mouse IgG is used simultaneously. Both are products by Molecular Probes.) was allowed to act on a specimen to cause a reaction at room temperature for about one hour (secondary antibody reaction).” left out, “ZWISS). […]” for “ZWISS).”
From the fact about various factors relating to the cell cycle, which was investigated in the past, the movement of proteins between the nucleus and the cytoplasm is known to relate to phosphorylation of amino acid. In particular, it was determined that, for the movement to the nucleus, phosphorylation and dephosphorylation of nuclear localization signals were important. […]

For experiment [3], the system named is NB1 cultured cell line derived from human neuroblastoma. The experiment can be described thus: Western blotting of ATBF1 protein (D1-120) with or without retinoic acid treatment, NB1. Type of experiment: cell-based. To be noted: NB1, after retinoic acid treatment 24 hours. As to the method:
In order to confirm the probability that the ATBF1 assumed in 10-2 is cut at some sites and it can function as each fraction of the cell, by using three kinds of cultured cells, that is, the cultured cell lines derived from human neuroblastoma, NB1 and GOTO; a mouse undifferentiated embryonic carcinoma cell line p19 and SDS-PAGE and western blotting using an anti-ATBF1 antibody (D1-120) were carried out. A control group and a nerve cell differentiation inducing group were examined, separately. As to the control group, cells of P19, NB1 and GOTO that have been cultured in a serum-containing culture solution were collected and examined. As to the nerve cell differentiation inducing group, retinoic acid treatment was carried out (P19: four days; NB1 and GOTO: 24 hours). However, a culture method of P19 cells is different from that of the other two cell lines. Firstly, in a state in which cells were allowed to float on a bacterial grade dish for four days, retinoic acid (concentration: […]) treatment was carried out, and then a serum-containing culture solution from which the retinoic acid had removed was prepared and transferred to a usual tissue culture dish. Then, culture was continued for three days. According to this method, P19 cells were differentiated and induced to neuron in which neurite was observed. […]
For orientation: A western blot detects proteins with antibodies after separation by electrophoresis.

The next experiment relates to HT1376. As to conditions: HT1376, p53 missense mutant, p21 frame shift mutation; cited from earlier work.
The test system of a further experiment is RT4. As to conditions: cited from earlier work.
A further experiment has as its system T24. To be noted: T24, p53 nonsense mutant; cited from earlier work.

The text below walks through data of patent US7871788B2, “Method of judging grade of malignancy of carcinoma cell using ATBF-1” (priority 2004, dated 2011).

Entries after “also recorded” stand apart in the source; their conditions may differ.

With `CCC(=C/[C@H](C)C/C=C/C(C)=C/[C@@H](C)C(=O)[C@@H](C)[C@H](O)[C@@H](C)C/C(C)=C/C(=O)O)/C=C/[C@@H]1OC(=O)C=C[C@@H]1C` [Leptomycin B], in the experiment with P19 cells [1] (P19 cells after retinoic acid on coated dish), the “number of cells undergoing apoptosis” value is reported as “clearly increased”. Further, in the experiment with P19 cells [1] (P19 cells after retinoic acid on dish coated with fibronectin and poly-L-ornithine, versus no Leptomycin B), the “intranuclear concentration of ATBF1” value is reported as “clearly increased”. For the same compound, the cell death result in the experiment on P19 cells [1] (one more day of culture added, the following day) is listed as “almost all the cells died”.
On to `Cn1c(=O)c2c(ncn2C)n(C)c1=O` [caffeine], for which, in the experiment on P19 cells [2], the “movement of ATBF1 into the nucleus” value is reported as “inhibited in almost all of the cultured cells; also recorded: more completely inhibited” and the “proliferation state of cells” value is “completely maintained”.
As for `CC1=C(/C=C/C(C)=C/C=C/C(C)=C/C(=O)O)C(C)(C)CCC1` [retinoic acid], the “size of ATBF1 protein mainly observed” value in experiment [3] was 210 kDa.
As for `N.N.[Cl][Pt][Cl]` [cisplatin], the induction of apoptosis entry with HT1376 is given as “cannot be induced”; in the experiment on RT4 (RT4, wild-type p21 and p53), “can be induced”; in the experiment with T24, “cannot be induced”. In addition, the “introduction of p21” value with RT4 (RT4, the only one of the three cell lines) is on record as “can introduce p21”.
